6 molecules from ChEMBL document CHEMBL1139562, “A switch in enantiomer preference between mitochondrial F1F0-ATPase chemotypes” (Bioorg Med Chem Lett, 2005) can be followed below.

The target of assay [1] is T1, Mitochondrial complex V; ATP synthase (Bos taurus) (UniProt P05632+P00829+P05631+P05630). As to the kind of experiment: Inhibitory activity against mitochondrial ATP synthase from bovine. The assay is classed as protein-complex assay.
The target in assay [2] is T1, Mitochondrial complex V; ATP synthase (Bos taurus). Briefly: Inhibitory activity against mitochondrial ATP hydrolase from bovine. The format is protein-complex assay.
For assay [3] the target is unchanged. As to the kind of experiment: Inhibitory activity against mitochondrial ATP synthase from bovine.

Molecules are shown by their SMILES.

For the molecule `S=C(Nc1ccc(Cl)cc1)O[C@H](Cn1ccnc1)c1ccc(Cl)cc1Cl`, the Inhibition in assay [1] was 3600 nM; in assay [2] it was more than 100 µM.

In the case of `S=C(Nc1ccc(Cl)cc1Cl)O[C@H](Cn1ccnc1)c1ccc(Cl)cc1Cl`, the Inhibition in assay [1] is 2200 nM; in assay [2] it was more than 100 µM.

For `S=C(Nc1ccc(Cl)cc1Cl)O[C@@H](Cn1ccnc1)c1ccc(Cl)cc1Cl`, the Inhibition in assay [1] was 19 nM; in assay [2], more than 100 µM.

Regarding `N#Cc1cccc(C(=O)N/C(=N\[C@H](Cn2ccnc2)c2ccc(Cl)cc2Cl)Nc2ccc(Cl)cc2)c1`, the Inhibition is 18 nM in assay [1] and more than 100 µM in assay [2].

For the molecule `N#Cc1cccc(C(=O)N/C(=N\[C@@H](Cn2ccnc2)c2ccc(Cl)cc2Cl)Nc2ccc(Cl)cc2)c1`, the results for the Inhibition in assay [1] and in assay [3] were more than 100000 nM and more than 100 µM, respectively.

`S=C(Nc1ccc(Cl)cc1)O[C@@H](Cn1ccnc1)c1ccc(Cl)cc1Cl`: the Inhibition is 140 nM in assay [1] and more than 100 µM in assay [2].
